Series [1] deals with first-instar Heliothis virescens larvae. Nature of the series: Mortality and growth inhibition in first-instar Heliothis virescens larvae fed in an artificial diet. The note with it: for EC50 (concentration causing 50% growth inhibition): first-instar larvae, artificial diet, in parentheses 95% confidence limits; for LC50 (concentration causing 50% mortality): heliothis virescens, in vivo; for LC50 (concentration causing 50% mortality) / LC50: po; for LC50: Heliothis virescens, read-out: LC50 (concentration causing 50% mortality). The class given is in vivo. An excerpt: Mortality and growth inhibition in first-instar Heliothis
virescens larvae fed azadirachtin and eight derivatives in an
^b LC50 values are the concentrations (ppm) causing 50%
^c EC50 values are the concentrations (PPM) causing 50% growth
^d Numbers in parentheses are the 95% confidence limits determined
using the methods of Litchfield and Wilcoxon, J. Pharmacol. Exp. Ther.

Series [2] relates to fifth-instar Heliothis virescens larvae. Nature of the series: Pupal and adult development of fifth-instar larvae injected orally with non-irradiated compounds. The class given is in vivo. The note with it: for mortality at 0.001 mg: Heliothis virescens, light or radiation study, po, read-out: % Mortality Prior to Adult Stage. The procedure:
(§1) Individual larvae were injected per os on the first day of the fifth instar with 1.0 μg of one of the either irradiated or non-irradiated compounds dissolved in 1.0 μl of 75% aqueous ethanol.
Successful and unsuccessful pupal and adult development of fifthinstar
Heliothis Virescens larvae injected orally with 1.0 microgram of either
azadirachtin, 3deacetylazadirachtin, 22,23dihydroazadirachtin, or
2',3',22,23tetrahydroazadirachtin.

Series [3] has the same test system. Nature of the series: Relative activity of UV-irradiated compounds in inhibiting pupal development (pupation). In kind it is in vivo. The note with it: for Relative activity, inhibiting pupal development: relative to non-irradiated. The procedure: (§2) Azadirachtin and its derivatives listed above (1.0 mg/ml absolute ethanol) were placed individually in capped quartz NMR tubes (5×180 mm) and were irradiated with two UV germicidal lights (GE, G30T8, 200-280 nm, 30 W) 1.8 m from the source at room temperature for up to 400 h. The controls were identical samples protected from exposure to UV radiation by wrapping with aluminum foil. At selected time intervals, aliquots from both the controls (non-irradiated) and irradiated samples were removed for high-performance liquid chromatography (HPLC) analysis (vide infra) and bioassay.
as §1
(§3) Relative activity of azadirachtin, 3deacetylazadirachtin,
22,23dihydroazadirachtin, and 2',3',22,23tetrahydroazadirachtin, all of
which had been exposed for 15, 30, 90, 200, and 400 hours to UV radiation
inhibiting the pupal development of fifthinstar Heliothis virescens
(§4) larvae. Relative activity is defined as the percentage of larvae injected

For series [4] the test system is unchanged. Nature of the series: Relative activity of UV-irradiated compounds in inhibiting adult development. The class given is in vivo. The note with it: for Relative activity, inhibiting adult development: relative to non-irradiated. On the procedure:
as §2, §1, §3
22,23dihydroazadirachtin, 2',3',22,23tetrahydroazadirachtin, all of which
had been exposed for 15, 30, 90, 200, and 400 hours to UV radiation, in
inhibiting the adult development of fifthinstar Heliothis virescens
as §4
relative to the percentage injected with its nonirradiated counterpart

Series [5] in a line: Stability to UV irradiation by reversed phase HPLC. In kind it is physicochemical. The note with it: for degraded at 90 h / half-life: absolute ethanol, uv. On the procedure:
Stability of Azadirachtin derivatives was determined as follows:
as §2
Analytical reversed phase HPLC was performed on a phenyl (5 μm) column run isocratically with acetonitrile-water (3:7) (Yamasaki et al.) Peaks were detected at 214 nm. The irradiated samples were compared with their corresponding non-UV-irradiated controls by measuring the height of the peak eluting at the appropriate Rt for each irradiated compound relative to each one's non-irradiated control. Results are expressed as the percent of the initial sample concentration remaining relative to the control. Each time point was done in at least triplicate fashion.

For series [6], the system named is insects. The note with it: Kubo & Klocke and other literature; cited from earlier work.
The test system of series [7] is insect. The note with it: Kubo & Klocke; cited from earlier work.
The mark [8] stands for this setting: 1.0 microgram per os, fifth instar, non-irradiated.
Setting [9] is: 1.0 microgram per os, non-irradiated.

≈ marks a conversion by molar mass, not a printed value. Entries after “also recorded” stand apart in the source; their conditions may differ. Bounds are passed on as bounds.

As for “13,20-O, O-dicarbomethoxy-22,23-dihydroazadirachtin [Compound 6]”, in series [1], the “EC50 (concentration causing 50% growth inhibition)” value is reported as 29.0 (20.3-41.5) ppm and the “LC50 (concentration causing 50% mortality)” value is on record as 90.0 (37.8-214.5) ppm.

In the case of 13-O-methylazadirachtin [Compound 5], in series [1], the “EC50 (concentration causing 50% growth inhibition)” value is 5.00 (1.54-16.25) ppm and the “LC50 (concentration causing 50% mortality)” value is on record as 25.0 (12.2-51.4) ppm.

As to 13O-acetylazadirachtin [Compound 4], in series [1], the “EC50 (concentration causing 50% growth inhibition)” value was 0.18 (0.08-0.40) ppm and the “LC50 (concentration causing 50% mortality)” value is given as 0.95 (0.59-1.54) ppm.

Regarding `C/C=C(\C)C(=O)OC1CC(O)C2(C(=O)OC)COC3C2C12COC(O)(C(=O)OC)C2C(C)(C12OC1(C)C1CC2OC2OC=CC21O)C3O` (stereo not drawn) [Compound 2, 3-deacetylazadirachtin], in series [1], the LC50 amounted to 0.37 µg/mL (≈ 0.545 µM). Also, the “Number Unsuccessful Larvae-Pupae” value in series [2] (setting [8]) was determined as 13. The “Number Unsuccessful Pupae-Adult” value in series [2] (setting [8]) was 4. Further, the “inhibition of pupation, in words” value in series [2] (setting [9]) was “less effective”. In addition, the mortality at 0.001 mg in series [2] stood at 94.1%. Moreover, the “Relative activity, inhibiting pupal development” value in series [3] (15 h UV) turned out to be 115.2%; in series [3] (30 h UV) it was 135.0%; in series [3] (90 h UV) it was 139.5%; in series [3] (200 h UV), 86.8%; in series [3] (400 h UV), 41.0%. Moreover, the “activity retained, in words” value in series [3] (90 h UV) is given as “retained full activity”. Also, the results for the “ability to inhibit pupation, in words” value in series [3] (200 h UV), in series [3] (400 h UV) and in series [3] (up to 90 h UV) were “did decline”, “An even greater decline” and “not appreciably reduced”, respectively. Also, the activity retained entry in series [3] (400 h UV) is “approximately 50%”. In addition, the “Relative activity, inhibiting adult development” value in series [4] (15 h UV) is 103.2%; in series [4] (30 h UV), 106.3%; in series [4] (90 h UV), 106.3%; in series [4] (200 h UV), 96.0%; in series [4] (400 h UV), 72.3%. Also, in series [4] (200 h UV), the “ability to inhibit larvae from reaching the adult stage, in words” value (“ability to inhibit larvae” for short) is “remained substantially unchanged until 400 h of irradiation”. The “degradation, in words” value in series [5] is listed as “none of the three compounds remained in their original state”. Also, the “reaction order of UV degradation, in words” value in series [5] is given as “degraded in a first-order reaction”. The degraded at 90 h in series [5] is over 80%. This compound also had a half-life in series [5] of 25 h.

Consider `C/C=C(\C)C(=O)OC1CC(OC(C)=O)C2(C(=O)OC)COC3C2C12COC(O)(C(=O)OC)C2C(C)(C12OC1(C)C1CC2OC2OCCC21O)C3O` (stereo not drawn) [Compound 3, 22,23-dihydroazadirachtin], for which, in series [1], the LC50 came out at 0.47 µg/mL (≈ 0.65 µM). In addition, in series [2] (setting [8]), the “Number Unsuccessful Larvae-Pupae” value is 13. Moreover, in series [2] (setting [8]), the “Number Unsuccessful Pupae-Adult” value is on record as 4. Moreover, the “inhibition of pupation, in words” value in series [2] (setting [9]) is “less effective”. In addition, the mortality at 0.001 mg in series [2] was 96.6%. For the same compound, the “Relative activity, inhibiting pupal development” value turned out to be 113.1% in series [3] (15 h UV); 104.6% in series [3] (30 h UV); 100.0% in series [3] (90 h UV); 72.7% in series [3] (200 h UV); 49.1% in series [3] (400 h UV). Moreover, in series [3] (90 h UV), the “activity retained, in words” value is reported as “retained full activity”. Also, the figures for the “ability to inhibit pupation, in words” value in series [3] (200 h UV), in series [3] (400 h UV) and in series [3] (up to 90 h UV) were “did decline”, “An even greater decline” and “not appreciably reduced”, respectively. The activity retained entry in series [3] (400 h UV) is reported as “approximately 50%”. Besides, the “Relative activity, inhibiting adult development” value was 103.5% in series [4] (15 h UV); 100.1% in series [4] (30 h UV); 103.5% in series [4] (90 h UV); 69.0% in series [4] (200 h UV); 74.5% in series [4] (400 h UV). Also, in series [4] (200 h UV), the “ability to inhibit larvae” value is recorded as “more so”. In addition, the “degradation, in words” value in series [5] is on record as “none of the three compounds remained in their original state”. In addition, the “reaction order of UV degradation, in words” value in series [5] was “degraded in a first-order reaction”. This compound yielded a degraded at 90 h in series [5] of over 80%. Moreover, in series [5], the half-life was 25 h.

On to `COC(=O)C1(O)OCC23C(O)CC(OC(C)=O)C4(C(=O)OC)COC(C42)C(O)C(C)(C24OC2(C)C2CC4OC4OCCC42O)C13` (stereo not drawn) [Compound 7, 1-detigloyl-22,23dihydroazadirachtin], for which, in series [1], the LC50 was found to be 2.4 µg/mL (≈ 3.75 µM).

With `CCC(C)C(=O)OC1CC(OC(C)=O)C2(C(=O)OC)COC3C2C12COC(O)(C(=O)OC)C2C(C)(C12OC1(C)C1CC2OC2OCCC21O)C3O` (stereo not drawn) [Compound 8, 2',3',22,23-tetrahydroazadirachtin], in series [1], the LC50 is 0.3 µg/mL (≈ 0.414 µM). Besides, the “growth inhibitory and lethal activity, in words” value in series [1] (relative to azadirachtin) is on record as “retaining full activity; also recorded: fully active”. For the same compound, the “Number Pupae” value in series [2] (setting [8]) is given as 10. In series [2] (setting [8]), the “Number Unsuccessful Larvae-Pupae” value is reported as 6. For the same compound, in series [2] (setting [8]), the “Number Unsuccessful Pupae-Adult” value is 1. The “inhibition of pupation, in words” value in series [2] (setting [9]) is listed as “equally effective in inhibiting pupation”. For the same compound, the mortality at 0.001 mg in series [2] came out at 100%. Moreover, the “Relative activity, inhibiting pupal development” value in series [3] (15 h UV) was 99.4%; in series [3] (30 h UV), 103.7%; in series [3] (90 h UV), 99.7%; in series [3] (200 h UV), 108.0%; in series [3] (400 h UV), 69.1%. Also, the “ability to inhibit pupation, in words” value in series [3] (200 h UV) is “most active in inhibiting pupation”; in series [3] (400 h UV) it was “its activity declined after 400 h of exposure, it was still more active than the other test compounds”. The “loss in activity with degradation, in words” value in series [3] (400 h UV) is recorded as “some loss in activity”. Moreover, the “Relative activity, inhibiting adult development” value in series [4] (15 h UV), in series [4] (30 h UV), in series [4] (90 h UV), in series [4] (200 h UV) and in series [4] (400 h UV) was 100.0% in each case. The “ability to inhibit larvae” value in series [4] (400 h UV) was “fully active after 400 h of irradiation”.

For the compound `COC(=O)C1(O)OCC23C(OC(=O)C(C)(O)C(C)O)CC(OC(C)=O)C4(C(=O)OC)COC(C42)C(O)C(C)(C24OC2(C)C2CC4OC4OCCC42O)C13` (stereo not drawn) [Compound 9, 2',3'-dihydroxy-2',3'22,23-tetrahydroazadirachtin], the LC50 in series [1] was found to be 42 µg/mL (≈ 55.5 µM).

Turning to `C/C=C(\C)C(=O)O[C@@H]1C[C@H](O)[C@]23CO[C@H](C(=O)OC)[C@H]2[C@](C)([C@]24O[C@@]2(C)[C@H]2C[C@@H]4O[C@@H]4OC=C[C@@]42O)[C@H](O)[C@@H]2OC[C@@]1(C(=O)OC)[C@H]23` [deacetylazadirachtinol], the “ecdysis inhibitory activity, in words” value in series [6] is listed as “the same ecdysis inhibitory activity”. The “fold less active than azadirachtin as insect growth inhibitor” value in series [7] was “about 2.5 fold”.

In general, mortality refers to the share of the test organisms that died. A word on the half-life: it is the time needed for the level to fall by half in the phase considered. High values mean slow loss, low ones fast loss.
